# Test results from US11255843B2, “Compositions and methods for identifying metabolically active agents” (Northwestern University, priority 2016, dated 2022).
# Structures can show the parent of a compound that is named as a salt.
# Assays:
# Bmal1−/− Beta TC-6 cells = assay: High throughput insulin-NanoLuc screen for drugs that restore glucose-stimulated insulin secretion; assay type: cell-based, mouse; details: 10 uM compound + 20 mM glucose, 1 hr
# Description: A high throughput screen was used to identify small molecule drugs capable of restoring glucose-stimulated insulin secretion in clock-deficient beta cells. Bmal1^−/− beta cells and primary islets display reduced glucose-stimulated insulin secretion (GSIS) and that agonists of Gq-coupled muscarinic receptor and diacyl glycerol (DAG) signaling rescue secretion to that of wild type cells. Compounds to augment GSIS in Bmal1^−/− cells were identified by adding compounds in combination with 20 mM glucose and using the DAG mimetic Phorbol 12-myristate 13-acetate (PMA), which rescues GSIS in these cells, as a positive control. The spectrum collection small molecule compound library (MicroSource Discovery Systems, Inc) consisting of 2700 known drugs and drug-like molecules was screened for compounds that augment insulin secretion in Bmal1^−/− Beta TC-6 cells. Insulin Nanoluc expressing Bmal1^−/− Beta TC-6 cells (30,000 cells/well) were plated in 384 well plates and cultured for 4 days at 37° C. with 5% CO2. Prior to the assay, cells were washed once with KRB buffer containing 0 mM glucose and starved in glucose-free KRB buffer for 1 hour. After aspirating, KRB buffer containing 20 mM glucose in addition to small molecules (10 uM) were added, and the cells were incubated for 1 hour. As a negative control, 16 wells received only 20 mM glucose, which fails to elicit insulin secretion in Bmal1^−/− cells, and an additional 16 wells received KRB buffer containing 20 mM glucose and 10 μM PMA, which is known to induce insulin secretion in Bmal1^−/− mouse islets and Beta TC-6 cells. After 1 hour, the supernatant was collected and centrifuged at 500G for 30 min. The supernatant was transferred into a fresh 384-well assay plate containing Nano-Glo Luciferase Assay Substrate (Promega) and luciferase intensity was measured by EnSpire Plate Reader (PerkinElmer) Intensity was measured within 30 minutes.
# Z scores for luciferase intensities produced by screened compounds were calculated from the following formula: z=(X−μ)/σ where z is the z-score, X is intensity of compounds, μ is the intensity of negative control (20 mM glucose), and σ is the standard deviation of negative control. Hit compounds were defined as those that elicited a response of more than 3 standard deviations from the mean (Z score>3). Hit Compounds
# The Spectrum Collection small molecule compound library (MicroSource Discovery Systems, Inc), which consists of 2700 known drugs and drug-like molecules, was screened for compounds that augment insulin secretion in Bmal1^−/− Beta TC-6 cells. Insulin Nanoluc-expressing Bmal1^−/− Beta TC-6 cells (30,000 cells/well) were placed into 384 well plates and cultured for 4 days at 37° C. and 5% CO2. The cells were washed once and starved in KRB buffer containing 0 mM glucose for 1 hr. After removing the KRB, KRB buffer containing 20 mM glucose in addition to the small molecules (10 uM) were added, and the cells were incubated for 1 hr. As a negative control, 16 wells received KRB buffer with only 20 mM glucose, which fails to elicit insulin secretion in Bmal1^−/− cells, and as a positive control, 16 wells received KRB buffer containing 20 mM glucose and 10 μM PMA, which is known to induce insulin secretion in both Bmal1^−/− mouse islets and Beta TC-6 cells. After 1 hr, the supernatant was collected and centrifuged at 500 g for 30 min. The supernatant was transferred into a fresh 384-well assay plate containing Nano-Glo Luciferase Assay Substrate (Promega), and luciferase intensity was measured by EnSpire Plate Reader (PerkinElmer) within 30 minutes.
# Z scores for luciferase intensities produced by screened compounds were calculated from the following formula: z=(X−μ)/σ (where z is the Z score, X is the intensity of the compounds, μ is the intensity of negative control (20 mM glucose), and a is the standard deviation of negative control). A row-based correction factor was applied to all luciferase readings to adjust for logarithmic signal decay. […]
# [1] = system: PdxCreER;Bmal1flx/flx islets; assay: Static insulin secretion assay in islets isolated from tamoxifen-treated PdxCreER;Bmal1flx/flx mice (ELISA); assay type: cell-based, mouse; details: islets from tamoxifen-treated mutant vs control mice, stimulated 1 hour; 1 mM carbachol, 10 μM PMA, 10 μM ionomycin, 2.5 μM forskolin, 1 mM 8-Br-cAMP
# Description: Mouse pancreatic islets were isolated via bile duct collagenase digestion (Collagenase P, Sigma) and Ficoll gradient separation and left to recover overnight (16 hours) at 37° C. in RPMI 1640 with 10% fetal bovine serum (FBS), 1% 1-glutamine, and 1% penicillin/streptomycin. For standard insulin release assays, five islets were statically incubated in Krebs-Ringer buffer (KRB) and stimulated for 1 hour at 37° C. with various glucose concentrations, 30 mM KCl, 2.5 μM forskolin, 1 mM 8-Br-cAMP, 10 mM 1-leucine+2 mM 1-glutamine, 1 mM carbachol, 10 μM PMA, or 10 μM ionomycin. Supernatant was collected and assayed for insulin content by enzyme-linked immunosorbent assay (ELISA; Crystal Chem Inc.). Islets were then sonicated in acid-ethanol solution and solubilized overnight at 4° C. before assaying total insulin content by ELISA. For rhythmic insulin release assays, islets were first synchronized with 10 μM forskolin (Sigma) for 1 hour and allowed to recover for 16 hours. Insulin secretion assays were then performed as above in individual groups of five islets every 4 hours for 72 hours (FIG. 5A). Human islets (obtained from IIDP) were cultured in RPMI 1640 with 10% human AB serum, 1% 1-glutamine, and 1% penicillin/streptomycin (see table in FIG. S4A for details of sex, age, BMI, and IIDP ID numbers of the three donors). For the rhythmic analysis of RNAs in murine and human islets, RNA was isolated (described below) in groups of 200 islets every 4 hours for 48 or 24 hours, respectively, starting 40 hours after forskolin synchronization (FIG. 5A).
# For in vivo delivery of tamoxifen (Sigma, dissolved in corn oil), mice received three intraperitoneal (i.p.) injections of 200 μg tamoxifen/g body weight, administered every other day. Subsequent experiments were conducted 10 to 14 days after tamoxifen treatment. For in vitro administration of tamoxifen, isolated islets were incubated for 24 hours with […] tamoxifen (dissolved in ethanol) prior to transfer to complete media for 24 hours to recover. Islets were then synchronized with forskolin prior to insulin secretion assays as described above.
# wild-type βTC-6 cells [2] = assay: Glucose-stimulated insulin secretion assay in Beta TC-6 cells (ELISA); assay type: cell-based, mouse; details: for effect on glucose-stimulated insulin secretion and calcium flux (validation of hits): hit compounds at 10 and 100 μM, 0 or 20 mM glucose
# Description: Beta TC-6 cells (300,000 cells/well) were seeded into poly-L-lysine-coated 24 well plates and cultured for 48-72 hrs at 37° C. and 5% CO2. The cells were washed once and incubated in KRB buffer containing 0 mM glucose for 1 hr. Cells were then treated for 1 hr with KRB buffer containing 0 or 20 mM glucose in the presence of hit compounds (including ivermectin, alexidine, and tomatine at final concentrations of 10 and 100 μM) or an equivalent volume of DMSO as a vehicle control. Supernatants were then collected and centrifuged at 500G for 30 min and assayed for insulin content by ELISA (Crystal Chem Inc). Cell lysates were harvested in acid-ethanol solution (0.18M HCl in 70% Ethanol), sonicated, and solubilized overnight at 4° C. before assaying total insulin content by ELISA. For insulin secretion assays following prolonged ivermectin treatment, cells were first treated with 10 μm ivermectin for 24 hrs prior to the 1 hr incubation with 0 mM glucose KRB buffer.
# wild-type βTC-6 cells [3] = assay: Calcium flux (Fura-2) after exposure to glucose and compound; assay type: cell-based, mouse; details: ivermectin 10 μM with glucose
# Description: BetaTC-6 cells were plated at a density of 100,000 cells per well in black 96-well plates with clear bottoms and cultured overnight at 37° C. and 5% CO2. Cells were then washed with BSA-free KRB buffer with no glucose and loaded with 5 μM Fura-2 (Invitrogen) and 0.04% Pluronic F-127 (Invitrogen) for 30 min at 37° C. Following a wash with BSA-free KRB, Fura-2 intensity was measured following injection of either glucose alone or indicated compounds. Cells were alternately excited with 340 nm and 380 nm wavelength light, and the emitted light was detected at 510 nm using a Cytation 3 Cell Imaging Multi-Mode Reader (Bio Tek) at sequential 30-second intervals. Raw fluorescence data were exported to Microsoft Excel and expressed as the 340/380 ratio for each well.
# Beta-TC6 cells = assay: Intracellular calcium determination with Fura2-AM dye; assay type: cell-based, mouse; details: Fura2-AM ratiometric, 10 μM ionomycin
# Description: BetaTC-6 cells were plated at a density of 100,000 cells per well in black 96-well plates with clear bottoms and cultured overnight at 37° C. and 5% CO2. Islets were dispersed to single cells by incubating in 0.05% Trypsin-EDTA at 37° C. for 3 min and plated at a density of 100 islets per well in laminin-treated black 96-well plates with clear bottoms and cultured in complete media for 48 hours at 37° C. and 5% CO2. Cells were then washed with BSA-free KRB buffer with no glucose and loaded with 5 μM Fura-2 (Invitrogen) and 0.04% Pluronic F-127 (Invitrogen) for 30 min at 37° C. Following a wash with BSA-free KRB, Fura-2 intensity was measured after injection of either glucose or ionomycin (Sigma) to final concentrations of 20 mM or 10 μM, respectively. Cells were alternately excited with 340- and 380-nm light, and the emitted light was detected at 510 nm using a Cytation 3 Cell Imaging Multi-Mode Reader (Bio Tek) at sequential 30-s intervals. Raw fluorescence data were exported to Microsoft Excel and expressed as the 340/380 ratio for each well.
# C2C12 myotubes = details: 62.5 uM DMOG; DMSO-treated controls 22 hrs, p<0.05
# Description: For PERIOD2:LUCIFERASE (PER2:LUC) reporter assays, C2C12 myoblast cells were first infected with PER2:LUC-expressing lentivirus (gift of A. Liu, University of Memphis) (18454201) and maintained in DMEM that included 10% FBS and 2.5 μg/ml blastocidin to select for stable Per2-luc integration. Myoblasts were then differentiated for 5 days with 2% horse serum, and then synchronized in 50% horse serum for 2 hours.
# myotubes and MEFs = assay: Core clock gene expression after chemical hypoxia mimetic (qPCR); assay type: cell-based, mouse; details: hypoxia induced with chemical mimetic CoCl2
# Description: Total RNA was extracted from C2C12 and MEF cell pellets and snap-frozen mouse skeletal muscle tissue using Tri-Reagent (Molecular Research Center, Inc). For muscle tissue samples, tissue was homogenized using a TissueLyser II apparatus (Qiagen). cDNA was synthesized using the High Capacity cDNA Reverse Transcription kit (Applied Biosystems). Real-time PCR was performed and analyzed using a CFX384 (Biorad). PCR conditions were: 10 min at 95° C., then 35 cycles of 10 s at 95° C., 15 s at 60° C. Relative expression levels (normalized to 18S rRNA (C2C12 and MEF) or β-actin (skeletal muscle)) were determined using the comparative CT method.
Compound,glucose-dependent insulin secretion in the absence of BMAL1 (hit compound) (Bmal1−/− Beta TC-6 cells),insulin secretion in PdxCreER;Bmal1flx/flx islets in response to secretagogue [1],effect on glucose-stimulated insulin secretion and calcium flux (validation of hits) (wild-type βTC-6 cells [2]),further results
CNC1(C)C2CCC(C2)C1(C)C (stereo not drawn) [mecamylamine hydrochloride],stimulate glucose-dependent insulin secretion,,,
C[N+](C)(C)CCOC(N)=O [carbachol],stimulate glucose-dependent insulin secretion,restored insulin secretion,,
"CCCCCCCCCCCCCC(=O)O[C@@H]1[C@@H](C)[C@@]2(O)[C@@H](C=C(CO)C[C@]3(O)C(=O)C(C)=C[C@@H]23)[C@@H]2C(C)(C)[C@]12OC(C)=O [PMA, phorbol 12-myristate 13-acetate]",rescues GSIS,restored insulin secretion,,
C[C@H]1CC[C@]2(NC1)O[C@H]1C[C@H]3[C@@H]4CC[C@H]5C[C@@H](O[C@@H]6O[C@H](CO)[C@H](O[C@@H]7O[C@H](CO)[C@@H](O)[C@H](O[C@@H]8OC[C@@H](O)[C@H](O)[C@H]8O)[C@H]7O[C@@H]7O[C@H](CO)[C@@H](O)[C@H](O)[C@H]7O)[C@H](O)[C@H]6O)CC[C@]5(C)[C@H]4CC[C@]3(C)[C@H]1[C@@H]2C [tomatine],stimulate glucose-dependent insulin secretion,,impact both glucose-stimulated insulin secretion and calcium flux,
ivermectin,stimulate glucose-dependent insulin secretion,,impact both glucose-stimulated insulin secretion and calcium flux,"glucose-stimulated insulin secretion in wild-type βTC-6 cells (wild-type βTC-6 cells [2]; acute or prolonged exposure, presence or absence of glucose): enhances glucose-stimulated insulin secretion; calcium flux in wild-type βTC-6 cells (wild-type βTC-6 cells [3]): enhances glucose-stimulated insulin secretion and calcium flux"
C[C@H](CCC(=O)O)C[C@H](C)C[C@H](C)C(=O)/C=C(\O)[C@H](C)C[C@H](C)C/C=C/[C@@H](C)[C@@H](O)[C@@H](C)[C@@H](O)C[C@@H]1CC[C@@](C)([C@H]2CC[C@@](C)([C@@H](C)O)O2)O1 [ionomycin],,significantly reduced in mutants,,intracellular Ca2+ (Beta-TC6 cells): raised intracellular Ca2+
"COC(=O)CNC(=O)C(=O)OC [DMOG, dimethyloxalyl glycine]",,,,period of PER2:LUC oscillations (C2C12 myotubes): 23 h
Nc1ncnc2c1nc(Br)n2[C@@H]1O[C@@H]2COP(=O)(O)O[C@H]2[C@H]1O [8-br-cAMP],,secreted significantly less insulin than controls,,
"[Cl][Co][Cl] [CoCl2, cobalt chloride]",,,,expression of core clock genes (myotubes and MEFs): increased expression of core clock genes
CCCCC(CC)CNC(=N)NC(=N)NCCCCCCNC(=N)NC(=N)NCC(CC)CCCC (stereo not drawn) [alexidine hydrochlodire],stimulate glucose-dependent insulin secretion,,impact both glucose-stimulated insulin secretion and calcium flux,
